We go through 26 compounds from patent publication US11673894B2, “Imidazopyrimidines and triazolopyrimidines as A2A / A2B inhibitors” (Incyte Corporation, priority 2018, dated 2023).

In one experiment the target is Adenosine A2A receptor (Homo sapiens (Human), UniProt P29274). The experiment can be described thus: A2A Tag-lite HTRF Assay. Conditions: Tag-lite Adenosine A2A labeled cells; A2A Receptor Red antagonist fluorescent ligand 12.5 nM; one-site competitive binding model; read-out: A2A_Ki. An excerpt:
The final concentration of DMSO was 1%.

The target in experiment [1] is human adenosine A2B receptor (Homo sapiens (Human), UniProt P29275). Kind of experiment: Adenosine A2B Receptor Cyclic AMP GS Assay. It is filed as cell-based. The note with it: HEK-293 cells expressing human A2B receptor; agonist NECA at 12 nM; cAMP accumulation (FRET); read-out: A2B_cAMP_EC50. The protocol:
Stably transfected HEK-293 cells expressing the human adenosine A2B receptor (Perkin Elmer) were maintained in MEM culture medium with 10% FBS and 100 μg/ml Geneticin (Life Technologies). 18 to 24 hours prior to assay, geneticin was removed from culture. The cisbio cAMP-GS Dynamic kit utilizing the FRET (Fluorescence Resonance Energy Transfer) technology was used to measure cAMP accumulation in the cells. Compounds of the present disclosure at an appropriate concentration were mixed with 10000 cells/well in white 96 well half area plates (Perkin Elmer) for 30 min at RT gently shaking. Agonist, NECA (R&D Technologies) at 12 nM was added to each well for 60 min at RT gently shaking. Detection reagents, d2-labeled cAMP (acceptor) and anti-cAMP cryptate (donor) were added to each well for 60 min at RT gently shaking. Plates were read on Pherastar (BMG Labtech), fluorescence ratio 665/620 was calculated and EC50 determination was performed by fitting the curve of percent of control versus the log of the compound concentration using GraphPad Prism.

Molecules are shown by their SMILES.

Chain of human adenosine A2B receptor (P29275 whole entry): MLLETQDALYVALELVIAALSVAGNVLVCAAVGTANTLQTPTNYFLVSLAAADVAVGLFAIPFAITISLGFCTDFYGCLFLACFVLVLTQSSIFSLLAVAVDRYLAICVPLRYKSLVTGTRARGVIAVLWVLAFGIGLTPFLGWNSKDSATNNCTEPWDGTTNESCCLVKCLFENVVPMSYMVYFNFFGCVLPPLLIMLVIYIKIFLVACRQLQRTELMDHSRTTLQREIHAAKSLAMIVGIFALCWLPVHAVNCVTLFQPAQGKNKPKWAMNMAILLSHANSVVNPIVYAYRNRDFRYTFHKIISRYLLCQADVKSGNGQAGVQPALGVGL
Chain of Adenosine A2A receptor (P29274 whole entry): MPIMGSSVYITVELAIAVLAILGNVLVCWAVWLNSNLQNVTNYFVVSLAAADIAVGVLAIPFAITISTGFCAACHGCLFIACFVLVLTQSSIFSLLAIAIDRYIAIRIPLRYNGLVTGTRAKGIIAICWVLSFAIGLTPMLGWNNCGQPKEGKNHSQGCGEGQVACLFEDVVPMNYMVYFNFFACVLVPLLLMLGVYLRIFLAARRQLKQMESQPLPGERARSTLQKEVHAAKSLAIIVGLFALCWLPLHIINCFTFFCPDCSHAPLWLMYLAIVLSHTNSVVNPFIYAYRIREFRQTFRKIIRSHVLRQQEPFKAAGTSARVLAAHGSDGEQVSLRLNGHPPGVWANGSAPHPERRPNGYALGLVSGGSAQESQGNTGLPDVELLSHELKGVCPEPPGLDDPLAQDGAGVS

For the compound `N#Cc1cccc(-c2nc(N)n3nc(Cc4ccccn4)nc3c2-c2ccncn2)c1` [Example 41, 3-(5-Amino-2-(pyridin-2-ylmethyl)-8-(pyrimidin-4-yl)-[1,2,4]triazolo[1,5-c]pyrimidin-7-yl)benzonitrile], on Adenosine A2A receptor, the Ki was less than 10 nM. For the same compound, in experiment [1], the EC50 is less than 10 nM.

On to `CCn1nccc1-c1c(-c2cccc(C#N)c2)nc(N)n2nc(Cc3ccccn3)nc12` [Example 42, 3-(5-Amino-8-(1-ethyl-1H-pyrazol-5-yl)-2-(pyridin-2-ylmethyl)-[1,2,4]triazolo[1,5-c]pyrimidin-7-yl)benzonitrile], for which the Ki on Adenosine A2A receptor was less than 10 nM. Further, the EC50 in experiment [1] was less than 10 nM.

Regarding `CCCn1nccc1-c1c(-c2cccc(C#N)c2)nc(N)n2nc(Cc3ccccn3)nc12` [Example 43, 3-(5-Amino-8-(1-propyl-1H-pyrazol-5-yl)-2-(pyridin-2-ylmethyl)-[1,2,4]triazolo[1,5-c]pyrimidin-7-yl)benzonitrile], on Adenosine A2A receptor, the Ki is less than 10 nM. In addition, the EC50 in experiment [1] is less than 10 nM.

Regarding `N#Cc1cccc(-c2nc(N)n3nc(Cc4ccccn4)nc3c2-c2cccc3ncccc23)c1` [Example 44, 3-(5-Amino-2-(pyridin-2-ylmethyl)-8-(quinolin-5-yl)-[1,2,4]triazolo[1,5-c]pyrimidin-7-yl)benzonitrile], the Ki on Adenosine A2A receptor is less than 10 nM. Also, the EC50 in experiment [1] was in the range of 10 to 100 nM.

As to `N#Cc1cccc(-c2nc(N)n3nc(C(O)c4ccccc4)nc3c2-c2ncncc2F)c1` (stereo not shown) [Example 45, 3-(5-Amino-8-(5-fluoropyrimidin-4-yl)-2-(hydroxy(phenyl)methyl)-[1,2,4]triazolo[1,5-c]pyrimidin-7-yl)benzonitrile], the Ki at Adenosine A2A receptor is less than 10 nM. In addition, the EC50 in experiment [1] is less than 10 nM.

Regarding `N#Cc1cccc(-c2nc(N)n3nc(Cc4ccccn4)nc3c2-c2ncncc2F)c1` [Example 46, 3-(5-Amino-8-(5-fluoropyrimidin-4-yl)-2-(pyridin-2-ylmethyl)-[1,2,4]triazolo[1,5-c]pyrimidin-7-yl)benzonitrile], on Adenosine A2A receptor, the Ki was less than 10 nM. The EC50 in experiment [1] is less than 10 nM.

As to `N#Cc1cccc(-c2nc(N)n3nc(C(NCCO)c4ccccc4)nc3c2-c2ccncc2)c1` (stereo not shown) [Example 47, 3-(5-Amino-2-((2-hydroxyethylamino)(phenyl)methyl)-8-(pyridin-4-yl)-[1,2,4]triazolo[1,5-c]pyrimidin-7-yl)benzonitrile], the Ki at Adenosine A2A receptor is less than 10 nM. Further, the EC50 in experiment [1] is less than 10 nM.

Regarding `CCn1nccc1-c1c(-c2cccc(C#N)c2)nc(N)n2nc(CC3CCCCC3)nc12` [Example 48, 3-(5-Amino-2-(cyclohexylmethyl)-8-(1-ethyl-1H-pyrazol-5-yl)-[1,2,4]triazolo[1,5-c]pyrimidin-7-yl)benzonitrile], the Ki on Adenosine A2A receptor was less than 10 nM. The EC50 in experiment [1] lay within 10 to 100 nM.

For `N#Cc1cccc(-c2nc(N)n3nc(Cc4ccccc4F)nc3c2-c2ccncn2)c1` [Example 49, 3-(5-Amino-2-(2-fluorobenzyl)-8-(pyrimidin-4-yl)-[1,2,4]triazolo[1,5-c]pyrimidin-7-yl)benzonitrile], the Ki on Adenosine A2A receptor was less than 10 nM. Also, the EC50 in experiment [1] is less than 10 nM.

For the compound `N#Cc1cccc(-c2nc(N)n3nc(C(O)c4ccccc4F)nc3c2-c2ccncn2)c1` (stereo not shown) [Example 50, 3-(5-Amino-2-((2-fluorophenyl)(hydroxy)methyl)-8-(pyrimidin-4-yl)-[1,2,4]triazolo[1,5-c]pyrimidin-7-yl)benzonitrile], the Ki at Adenosine A2A receptor was less than 10 nM. Further, the EC50 in experiment [1] was less than 10 nM.

Consider `Cc1cccc(Cc2nc3c(-c4ccncn4)c(-c4cccc(C#N)c4)nc(N)n3n2)n1` [Example 51, 3-(5-Amino-2-((6-methylpyridin-2-yl)methyl)-8-(pyrimidin-4-yl)-[1,2,4]triazolo[1,5-c]pyrimidin-7-yl)benzonitrile], for which the Ki on Adenosine A2A receptor was less than 10 nM. For the same compound, in experiment [1], the EC50 fell in the range of 10 to 100 nM.

Turning to `CCn1nccc1-c1c(-c2cccc(C#N)c2)nc(N)n2nc(Cc3ncccc3F)nc12` [Example 52, 3-(5-Amino-8-(1-ethyl-1H-pyrazol-5-yl)-2-((3-fluoropyridin-2-yl)methyl)-[1,2,4]triazolo[1,5-c]pyrimidin-7-yl)benzonitrile], on Adenosine A2A receptor, the Ki is less than 10 nM. The EC50 in experiment [1] is less than 10 nM.

For the compound `CCn1nccc1-c1c(-c2cccc(C#N)c2)nc(N)n2nc(Cc3ncccc3OC)nc12` [Example 53, 3-(5-Amino-8-(1-ethyl-1H-pyrazol-5-yl)-2-((3-methoxypyridin-2-yl)methyl)-[1,2,4]triazolo[1,5-c]pyrimidin-7-yl)benzonitrile], on Adenosine A2A receptor, the Ki was less than 10 nM. For the same compound, the EC50 in experiment [1] was in the range of 10 to 100 nM.

Turning to `Cn1cc(-c2ccccc2Cc2nc3c(-c4ccncn4)c(-c4cccc(C#N)c4)nc(N)n3n2)cn1` [Example 54, 3-(5-Amino-2-(2-(1-methyl-1H-pyrazol-4-yl)benzyl)-8-(pyrimidin-4-yl)-[1,2,4]triazolo[1,5-c]pyrimidin-7-yl)benzonitrile], the Ki on Adenosine A2A receptor is less than 10 nM. Also, the EC50 in experiment [1] was less than 10 nM.

For the compound `CCn1nccc1-c1c(-c2cccc(C#N)c2)nc(N)n2nc(Cc3noc4ccccc34)nc12` [Example 55, 3-(5-Amino-2-(benzo[d]isoxazol-3-ylmethyl)-8-(1-ethyl-1H-pyrazol-5-yl)-[1,2,4]triazolo[1,5-c]pyrimidin-7-yl)benzonitrile], the Ki on Adenosine A2A receptor was less than 10 nM. For the same compound, in experiment [1], the EC50 is less than 10 nM.

Consider `CCn1nccc1-c1c(-c2cccc(C#N)c2)nc(N)n2nc(Cc3nn(C)c4ccccc34)nc12` [Example 56, 3-(5-Amino-8-(1-ethyl-1H-pyrazol-5-yl)-2-((1-methyl-1H-indazol-3-yl)methyl)-[1,2,4]triazolo[1,5-c]pyrimidin-7-yl)benzonitrile], for which, at Adenosine A2A receptor, the Ki is less than 10 nM. Moreover, in experiment [1], the EC50 is 10 to 100 nM.

For `N#Cc1cccc(-c2nc(N)n3nc(CN4CC(O)C4)nc3c2-c2ccncn2)c1` [Example 57, 3-(5-Amino-2-((3-hydroxyazetidin-1-yl)methyl)-8-(pyrimidin-4-yl)-[1,2,4]triazolo[1,5-c]pyrimidin-7-yl)benzonitrile], the Ki on Adenosine A2A receptor was less than 10 nM. Also, in experiment [1], the EC50 lay in the range of 100 to 1000 nM.

Consider `Cc1cnccc1-c1c(-c2cccc(C#N)c2)nc(N)n2nc(Cc3ccccn3)nc12` [Example 58, 3-(5-Amino-8-(3-methylpyridin-4-yl)-2-(pyridin-2-ylmethyl)-[1,2,4]triazolo[1,5-c]pyrimidin-7-yl)benzonitrile], for which the Ki at Adenosine A2A receptor was less than 10 nM. For the same compound, the EC50 in experiment [1] is less than 10 nM.

As to `COc1cc(-c2c(-c3cccc(C#N)c3)nc(N)n3nc(Cc4ccccn4)nc23)cc(C)n1` [Example 59, 3-(5-Amino-8-(2-methoxy-6-methylpyridin-4-yl)-2-(pyridin-2-ylmethyl)-[1,2,4]triazolo[1,5-c]pyrimidin-7-yl)benzonitrile], at Adenosine A2A receptor, the Ki was less than 10 nM. For the same compound, the EC50 in experiment [1] was 10 to 100 nM.

Consider `N#Cc1cccc(-c2nc(N)n3nc(Cc4ccccn4)nc3c2-c2cnn3ncccc23)c1` [Example 60, 3-(5-Amino-8-(pyrazolo[1,5-b]pyridazin-3-yl)-2-(pyridin-2-ylmethyl)-[1,2,4]triazolo[1,5-c]pyrimidin-7-yl)benzonitrile], for which the Ki on Adenosine A2A receptor is less than 10 nM. Further, in experiment [1], the EC50 was 10 to 100 nM.

As for `Cc1ncoc1-c1c(-c2cccc(C#N)c2)nc(N)n2nc(Cc3ccccn3)nc12` [Example 61, 3-(5-Amino-8-(4-methyloxazol-5-yl)-2-(pyridin-2-ylmethyl)-[1,2,4]triazolo[1,5-c]pyrimidin-7-yl)benzonitrile], the Ki on Adenosine A2A receptor is less than 10 nM. Also, the EC50 in experiment [1] is less than 10 nM.

For `Cc1nc(CO)c(-c2c(-c3cccc(C#N)c3)nc(N)n3nc(Cc4ccccn4)nc23)o1` [Example 62, 3-(5-Amino-8-(4-(hydroxymethyl)-2-methyloxazol-5-yl)-2-(pyridin-2-ylmethyl)-[1,2,4]triazolo[1,5-c]pyrimidin-7-yl)benzonitrile], the Ki at Adenosine A2A receptor was less than 10 nM. The EC50 in experiment [1] was less than 10 nM.

For the compound `COCc1nc(C)oc1-c1c(-c2cccc(C#N)c2)nc(N)n2nc(Cc3ccccn3)nc12` [Example 63, 3-(5-Amino-8-(4-(methoxymethyl)-2-methyloxazol-5-yl)-2-(pyridin-2-ylmethyl)-[1,2,4]triazolo[1,5-c]pyrimidin-7-yl)benzonitrile], the Ki on Adenosine A2A receptor is less than 10 nM. Moreover, in experiment [1], the EC50 was less than 10 nM.

`N#Cc1cccc(-c2nc(N)n3nc([C@@H](O)c4ccccc4)nc3c2-c2ccncn2)c1` [Example 64, (S)-3-(5-amino-2-(hydroxy(phenyl)methyl)-8-(pyrimidin-4-yl)-[1,2,4]triazolo[1,5-c]pyrimidin-7-yl)benzonitrile]: the Ki on Adenosine A2A receptor is less than 10 nM. For the same compound, the EC50 in experiment [1] was less than 10 nM.

Take `N#Cc1cccc(-c2nc(N)n3nc([C@H](O)c4ccccc4)nc3c2-c2ccncn2)c1` [Example 65, (R)-3-(5-amino-2-(hydroxy(phenyl)methyl)-8-(pyrimidin-4-yl)-[1,2,4]triazolo[1,5-c]pyrimidin-7-yl)benzonitrile]: the Ki on Adenosine A2A receptor is less than 10 nM. Besides, in experiment [1], the EC50 was less than 10 nM.

As for `N#Cc1cccc(-c2nc(N)n3nc(C(=O)c4ccccc4)nc3c2-c2ccncn2)c1` [Example 66, 3-(5-Amino-2-benzoyl-8-(pyrimidin-4-yl)-[1,2,4]triazolo[1,5-c]pyrimidin-7-yl)benzonitrile], the Ki on Adenosine A2A receptor is less than 10 nM. In addition, the EC50 in experiment [1] was less than 10 nM.
